The source of these data is patent US20180368393A1, “PRE- AND POST-STORAGE STRESS RESPONSE CONDITIONING” (CPSI HOLDINGS LLC, priority 2017, published 2018).

SMILES strings stand for the structures.

One test concerns human endothelial cells. Kind of test: Human endothelial cell monolayer survival and repopulation following cryopreservation (Calcein-AM assay). Type of test: cell-based. The method, then: A series of cryopreservation experiments was conducted on human endothelial and smooth muscle cell suspensions and monolayers to assess the performance of four (4) commercially available cryopreservation solutions: DP6, VS55, VS83, and M22, as well as nine (9) additional solutions: […] Eurocollins (EC) solution was included as a negative control, i.e., no cryoprotective agent (CPA) control, while media+10% DMSO ([…]) is a typical solution (10% DMSO) used in standard controlled rate cryopreservation protocols known to the skilled individual. Unisol is representative of the class of intracellular-like or intracellular-type solutions/media, whereas EC solution and culture media are representative of the class of extracellular-like or extracellular-type solutions/media. Other studies presented herein provide additional examples of intracellular- and extracellular-like solutions; other intracellular- and extracellular-like solutions are similarly useful and are known to those of skill in the art. FIG. 1 illustrates the results of an assessment of human endothelial cell survival following preservation. Monolayers of endothelial cells were frozen or vitrified and thawed in the indicated solutions (control, Uni, […], DP6, VS55, VS83, and […]). Following thawing, samples were diluted in culture media, placed into culture and assessed for viability at 1 day (24 hours) post-thaw and following seven (7) days of recovery using the Calcein-AM assay. […] The Uni and U10 conditions provided outcomes exceeding that of the VS55, VS83 and […] conditions. Therefore, subsequent studies (see, e.g., FIG. 2) focused on Unisol-based solutions with various CPAs and concentrations, in addition to the DP6 commercial cryopreservation solution. […] Monolayers of endothelial cells were frozen or vitrified and thawed in the indicated solutions. […] For pre-freeze (PF), post-warming (PW) and pre/post (P/P) conditioning studies, molecular modulation agents targeting inhibition of apoptosis (Caspase inhibitor IV, 8, 9 and a combination of Caspases 8 and 9), reduction of free-radical damage (resveratrol and NAC), and activation of the unfolded protein response (salubrinal) were employed as supplements in the media 1 hour prior to freezing (pre-freeze condition) or for 1 day following thawing and CPA removal from frozen samples (post-warming condition). Based on outcomes in the studies in Example 1, PF, PW and P/P conditioning were examined in Examples 2-3 using a series of Unisol-based solutions (Uni, U5, U10, U20, UG10, U5G10 and U10G10). […] Patent Application Publication No. US 2016/0097583 A1 (Ser. No. 14/876,087), which is incorporated by reference in its entirety as though fully set forth herein. The freeze and thaw process was slightly modified relative to the disclosure of U.S. Patent Application Publication No. US 2016/0097583 A1 by the addition of a 0.090 inch aluminum plate inserted into the bottom of the 96 well plate to aid in increasing cooling and heating uniformity throughout the plate, thereby reducing the well-to-well variability within the samples. The device was used to thaw the samples, which were frozen in situ in monolayers in standard 96-well tissue culture plates. […] A mitochondrial-mediated apoptotic inhibitor (Caspase 9) and a membrane-mediated apoptotic inhibitor (Caspase 8) were investigated to evaluate the involvement and impact of modulation of various apoptotic induction pathways. Additionally, a pan-Caspase inhibitor (Cas IV) was also investigated to assess the impact of global pathway modulation. As with the viability studies, cell survival and repopulation were assessed using Calcein-AM assays and analyzed using fluorescent microscopy (Zeiss). Survival was determined at 24 hours post-thaw to allow for the manifestation of any delayed onset cell death pathways to be executed. Further, cell recovery was included to evaluate the long term potency and repopulation potential of the various samples. […]

Another test concerns hamster beta islet cells. Put plainly: Hamster beta islet cell survival following cryopreservation (AlamarBlue assay). The conditions noted are these: PW conditioning 24 hours vs non-modulated samples; 10 mM NAC recovery media. The test is classed as cell-based. The method, then:
The studies described in example 8 focus on the collection of cell survival data and the impact of post-thaw conditioning on hamster beta islet cells. Specific activities included standard cryopreservation protocol and collection of data (survival and cell death) from samples frozen using 3 unique cryopreservation solutions (media with 0, 5% DMSO and 5% DMSO+NAC) and oxidative stress PW modulation (NAC). Survival was determined at 24 hours post-thaw to allow for the manifestation of any delayed onset cell death pathways to be executed. Further, cell recovery was included to evaluate the long term potency and repopulation potential of the various samples.
Cell samples were processed according to standard controlled rate suspension freeze protocols and analyzed following 24 hours to 3 days post thaw for survival and recovery. […] To this end, samples were probed with AlamarBlue, incubated for 60 mins in the dark and then assessed using a Tecan micro plate reader. […]
FIG. 33 illustrates the results of an assessment of beta islet cell survival following cryopreservation in media based solutions with various CPA concentrations. […] Following thawing, samples were placed into culture and assessed for viability at 1 day (24 hours) post-thaw using the AlamarBlue assay. […]

As to `CC(=O)N[C@@H](CS)C(=O)O` [NAC, n-acetyl cysteine], the survival in the test on human endothelial cells (P/P conditioning with NAC, salubrinal or resveratrol, U10G10) is about 60%. For the same molecule, the post-thaw viability result with human endothelial cells (P/P conditioning, U10 and U5G10 CP solutions vs matched non-treated samples) is reported as “increase in post-thaw viability”. Moreover, the “day 1 survival increase over non-treated samples” value was about 2.5 fold in the test on human endothelial cells (P/P oxidative stress modulator conditioning, U10G10); about 2 fold in the test on human endothelial cells (PF conditioning 1 hour, U10G10); about 2 fold in the test on human endothelial cells (PW conditioning 24 hours, U10G10). In addition, the “post-thaw cell survival or recovery (overall)” value with human endothelial cells (PW conditioning in combination with various solutions) is “Broader solution benefit”. For the same molecule, in the test on human endothelial cells (PW conditioning with oxidative stress modulators, vs non-treated), the “cell recovery / repopulation, 3 days” value was “improved cell recovery”. The increase in survival in the test on human endothelial cells (PW conditioning, U10 and U10G10 solutions, day 1) is about 50%. The post-thaw survival entry with hamster beta islet cells is given as “improvement in post-thaw survival”.
